This experiment has as its system Plasmodium berghei. The experiment is described as follows: Luciferase/luciferin-expressing antifolate-resistant parasites were used to infect a culture of HepG2 cells that were pre-incubated with compounds. Infected hepatocytes emit light due to the luciferase reaction. Assay results are presented as the percent inhibition of light emission compared to control. […]. As to conditions: sporozoite; for IC90: read-out: LUCIFERASE INFECTION ASSAY - IC90. It is filed as functional.

The mark [1] stands for this setting: read-out: LUCIFERASE INFECTION ASSAY - IC50.

From ChEMBL document CHEMBL4483862, “Open-source discovery of chemical leads for next-generation chemoprotective antimalarials” (2018) come the findings set out here.

The IC50 is the concentration that gives 50% inhibition. One may read the IC90 as the point of the concentration-response curve where the effect stands at 90%.

For the molecule `Cc1n[n+]2c3c(cnc2s1)CC/C3=C/c1ccccc1`, the IC90 came to 9.79 µM. Moreover, the IC50 (HEPG2TOX_HILL_SLOPE 2.96, HEPG2TOX_R_SQUARED 0.5, PBLUC_HILL_SLOPE 7.3, PBLUC_R_SQUARED 0.698, read-out: LUCIFERASE INFECTION ASSAY - IC50) was determined as 7.25 µM.

Turning to `Cc1cc(SC(C)C(=O)N(Cc2ccccc2)Cc2ccccc2)nc2ccccc12` (configuration not stated), the 90% effect concentration (IC90) is greater than 10 µM. In addition, the IC50 (HEPG2TOX_HILL_SLOPE 0.863, HEPG2TOX_R_SQUARED 0.817, read-out: LUCIFERASE INFECTION ASSAY - IC50) is greater than 10 µM.

For the molecule `O=C(Nc1nc2c(-c3ccccc3)c(C(F)(F)F)sc2s1)c1ccc(Cl)cc1`, the IC90 is greater than 7.52 µM. Further, the half-inhibitory concentration (IC50) (PBLUC_HILL_SLOPE 7.81, PBLUC_R_SQUARED 0.676, read-out: LUCIFERASE INFECTION ASSAY - IC50) was found to be 6.32 µM.

With `O=C1C=CC(=O)N1c1cccc(Br)c1`, the concentration for an effect of 90% (IC90) was greater than 13.1 µM. For the same molecule, the concentration for half-maximal inhibition (IC50) (PBLUC_HILL_SLOPE 13.6, PBLUC_R_SQUARED 0.314, read-out: LUCIFERASE INFECTION ASSAY - IC50) was 12.9 µM.

In the case of `CCOc1ccc(C(=O)c2c(-c3ccccc3)c3c4n(c(COc5cc(C)ccc5C(C)C)nn24)CCCC3)cc1`, the IC90 is greater than 10 µM. Also, the IC50 under setting [1] was 8.64 µM.

For `O=C(/C=C/c1cccs1)N1CCN(S(=O)(=O)c2c(Cl)cc(Br)cc2Cl)CC1`, the IC90 was greater than 10 µM. Besides, the IC50 (PBLUC_HILL_SLOPE 3.28, PBLUC_R_SQUARED 0.115, read-out: LUCIFERASE INFECTION ASSAY - IC50) was found to be 5.38 µM.

As to `C=CCSc1nnc(NC(=O)C2Cc3ccccc3CN2S(=O)(=O)c2ccccc2F)s1` (configuration not stated), the 90% effect concentration (IC90) was greater than 10 µM. Moreover, for the setting “FFLUC_HILL_SLOPE 1.45, FFLUC_R_SQUARED 0.33, PBLUC_HILL_SLOPE 5.35, PBLUC_R_SQUARED 0.362, read-out: LUCIFERASE INFECTION ASSAY - IC50”, the 50% inhibitory concentration (IC50) came out at 7.22 µM.

As to `Nc1ncnc(N/N=C/c2c(O)ccc3ccccc23)c1[N+](=O)[O-]`, the IC90 is greater than 10 µM. For the same molecule, where the note is “HEPG2TOX_HILL_SLOPE 0.612, HEPG2TOX_R_SQUARED 0.82, read-out: LUCIFERASE INFECTION ASSAY - IC50”, the half-maximal inhibitory concentration (IC50) was greater than 10 µM.

As to `COc1cc(Nc2cncc(-c3ccc(N)cc3)n2)cc(OC)c1OC`, the IC90 stood at 1.84 µM. The IC50 (HEPG2TOX_HILL_SLOPE 1.6, HEPG2TOX_R_SQUARED 0.917, PBLUC_HILL_SLOPE 3.36, PBLUC_R_SQUARED 0.719, read-out: LUCIFERASE INFECTION ASSAY - IC50) was 0.955 µM.

As to `CN(C(=O)Cn1nnc(-c2cccc(C(F)(F)F)c2)n1)C1(C#N)CCCCC1`, the IC90 is greater than 10 µM. Besides, the IC50 under setting [1] was greater than 10 µM.

As to `Brc1ccc(CNc2ccc3ncccc3c2)cc1`, the concentration for an effect of 90% (IC90) is greater than 10.5 µM. Also, under setting [1], the concentration for half-maximal inhibition (IC50) is greater than 10.5 µM.

As for `O=C(Nc1cccc(-n2cnnn2)c1)c1ccc(-c2ccccc2Cl)o1`, the IC90 was greater than 9.02 µM. Besides, the half-inhibitory concentration (IC50) (HEPG2TOX_HILL_SLOPE 8.29, HEPG2TOX_R_SQUARED 0.71, PBLUC_HILL_SLOPE 14.4, PBLUC_R_SQUARED 0.296, read-out: LUCIFERASE INFECTION ASSAY - IC50) is 8.92 µM.

`CCS(=O)(=O)N1CCC(C(=O)N(Cc2ccccc2)c2nc(-c3ccc(F)cc3)cs2)CC1`: the IC90 was greater than 10 µM. Further, where the note is “PBLUC_HILL_SLOPE 11.3, PBLUC_R_SQUARED 0.297, read-out: LUCIFERASE INFECTION ASSAY - IC50”, the IC50 came to 8.84 µM.

For the molecule `Cc1ccc(-n2c(SC(C)C(=O)NCCc3cccs3)nnc2-c2ccccc2F)cc1` (configuration not stated), the 90% effect concentration (IC90) was greater than 10 µM. Besides, the concentration for half-maximal inhibition (IC50) (FFLUC_HILL_SLOPE 1.87, FFLUC_R_SQUARED 0.282, HEPG2TOX_HILL_SLOPE 0.0378, HEPG2TOX_R_SQUARED 0.0131, PBLUC_HILL_SLOPE 12.6, PBLUC_R_SQUARED 0.129, read-out: LUCIFERASE INFECTION ASSAY - IC50) was greater than 10 µM.

With `O=C(Cc1noc2ccccc12)Nc1ccc(C(=O)N2CCCC2)cc1`, the IC90 is greater than 10 µM. Moreover, under setting [1], the 50% inhibitory concentration (IC50) was greater than 10 µM.

In the case of `CS(=O)(=O)c1ccc(-c2ccc3ncc(-c4cccc(C(F)(F)F)c4)n3n2)cc1`, the IC90 was greater than 10 µM. Besides, the IC50 under setting [1] amounted to 2.78 µM.

Regarding `OC1(c2ccc(OC(F)F)cc2)CN(c2ccc(Br)cc2)C2=[N+]1c1ccccc1CC2` (configuration not stated), the 90% effect concentration (IC90) was greater than 10 µM. Also, the IC50 (FFLUC_HILL_SLOPE 1.23, FFLUC_R_SQUARED 0.743, PBLUC_HILL_SLOPE 152, PBLUC_R_SQUARED 0.276, read-out: LUCIFERASE INFECTION ASSAY - IC50) is 9.94 µM.

With `CC(C(=O)OCC(=O)Nc1ccc(Cl)c2c1C(=O)c1ccccc1C2=O)N1C(=O)c2ccccc2C1=O` (configuration not stated), the IC90 is greater than 10 µM. The IC50 under setting [1] was greater than 10 µM.

Regarding `O=C1C(=O)N(Cc2ccccc2F)c2c1cccc2C(F)(F)F`, the IC90 is greater than 10.2 µM. Where the note is “FFLUC_HILL_SLOPE 1.03, FFLUC_R_SQUARED 0.0461, HEPG2TOX_HILL_SLOPE 15.2, HEPG2TOX_R_SQUARED 0.946, PBLUC_HILL_SLOPE 1.65, PBLUC_R_SQUARED 0.631, read-out: LUCIFERASE INFECTION ASSAY - IC50”, the half-inhibitory concentration (IC50) is 2.98 µM.

For the molecule `COc1ccc(-c2cnc3ccc(Cc4ccccc4)nn23)cc1OC`, the 90% effect concentration (IC90) was found to be 3.83 µM. Also, the IC50 (HEPG2TOX_HILL_SLOPE 1.09, HEPG2TOX_R_SQUARED 0.956, PBLUC_HILL_SLOPE 11.4, PBLUC_R_SQUARED 0.574, read-out: LUCIFERASE INFECTION ASSAY - IC50) was determined as 3.16 µM.

`Clc1ccc(CSCc2cc(SCc3ccc(Cl)cc3Cl)nc(-c3ccccn3)n2)cc1`: the IC90 was determined as 0.781 µM. The IC50 (HEPG2TOX_HILL_SLOPE 1.3, HEPG2TOX_R_SQUARED 0.951, PBLUC_HILL_SLOPE 11.6, PBLUC_R_SQUARED 0.668, read-out: LUCIFERASE INFECTION ASSAY - IC50) was 0.646 µM.

Turning to `CC(=O)NC12CC3CC(C1)CC(C(=O)Nc1ccc4c(c1)-c1ccccc1C4)(C3)C2`, the concentration for an effect of 90% (IC90) was determined as 5.37 µM. Moreover, for the setting “PBLUC_HILL_SLOPE 1.58, PBLUC_R_SQUARED 0.82, read-out: LUCIFERASE INFECTION ASSAY - IC50”, the concentration for half-maximal inhibition (IC50) was determined as 1.34 µM.

Consider `C[C@H](NC(N)=O)C(=O)OCC(=O)Nc1cccc(C#N)c1`, for which the 90% effect concentration (IC90) was greater than 10 µM. For the same molecule, the IC50 under setting [1] was greater than 10 µM.

In the case of `CC(Oc1ccc(Cl)cc1Cl)C(=O)Nc1nc(-c2c[nH]c(C(N)=O)c2)cs1` (configuration not stated), the IC90 was determined as 2.99 µM. The IC50 (PBLUC_HILL_SLOPE 4.28, PBLUC_R_SQUARED 0.703, read-out: LUCIFERASE INFECTION ASSAY - IC50) was 1.79 µM.

As to `CCCCn1c(N)c(N(CCC)C(=O)/C=C/c2cccc3cccnc23)c(=O)[nH]c1=O`, the IC90 worked out at 3.69 µM. In addition, where the note is “PBLUC_HILL_SLOPE 14.7, PBLUC_R_SQUARED 0.526, read-out: LUCIFERASE INFECTION ASSAY - IC50”, the half-maximal inhibitory concentration (IC50) is 3.18 µM.

On to `COc1cc(/C=c2\s/c(=C(/C#N)C(=O)Nc3cccc(S(=O)(=O)N4CCCCC4)c3)n(CCc3ccccc3)c2=O)ccc1OC(F)F`, for which the IC90 was greater than 10 µM. Further, under setting [1], the IC50 is greater than 10 µM.

In the case of `CCN1CCc2nc(NC(=O)C3(c4ccc(Br)cc4)CC3)sc2C1`, the 90% effect concentration (IC90) came out at 3.64 µM. Moreover, the IC50 (HEPG2TOX_HILL_SLOPE 12.5, HEPG2TOX_R_SQUARED 0.865, PBLUC_HILL_SLOPE 12.4, PBLUC_R_SQUARED 0.642, read-out: LUCIFERASE INFECTION ASSAY - IC50) was 3.05 µM.

Regarding `CCc1nnc(Sc2ncnc3ccsc23)[nH]1`, the IC90 is greater than 10 µM. Besides, the IC50 under setting [1] was greater than 10 µM.

Regarding `COc1ccc(-c2cnc3ccc(NCc4ccc(F)cc4)nn23)cc1`, the 90% effect concentration (IC90) came to 3.94 µM. Where the note is “HEPG2TOX_HILL_SLOPE 2.12, HEPG2TOX_R_SQUARED 0.979, PBLUC_HILL_SLOPE 9.57, PBLUC_R_SQUARED 0.534, read-out: LUCIFERASE INFECTION ASSAY - IC50”, the concentration for half-maximal inhibition (IC50) was 3.13 µM.

On to `COC(=O)c1noc(C)c1-c1ccnn1C(=O)Nc1cccc(Cl)c1`, for which the IC90 was 8.47 µM. Moreover, the IC50 (PBLUC_HILL_SLOPE 10.3, PBLUC_R_SQUARED 0.543, read-out: LUCIFERASE INFECTION ASSAY - IC50) turned out to be 6.84 µM.

As for `CCOc1ccc(C(C)=O)cc1COC(=O)c1cc(-c2ccccc2)nc2c1c(C)nn2-c1ccccc1`, the IC90 was greater than 10 µM. Also, the IC50 under setting [1] is greater than 10 µM.

For the molecule `CCCCCCN(C(=O)COC(=O)c1c(C)[nH]c(C2CC2)nc1=O)c1nc(-c2ccccc2)cs1`, the IC90 amounted to 4.6 µM. In addition, where the note is “PBLUC_HILL_SLOPE 8.31, PBLUC_R_SQUARED 0.597, read-out: LUCIFERASE INFECTION ASSAY - IC50”, the IC50 was 3.53 µM.

With `O=C(c1c[nH]c2ccccc12)C(NCc1ccc(F)cc1)c1ccccc1` (configuration not stated), the IC90 was greater than 10 µM. Further, the half-maximal inhibitory concentration (IC50) under setting [1] was greater than 10 µM.

On to `Cc1nc2ccccc2nc1SC(C)C(=O)c1c[nH]c2ccccc12` (configuration not stated), for which the concentration for an effect of 90% (IC90) came to 1.98 µM. The IC50 (HEPG2TOX_HILL_SLOPE 0.739, HEPG2TOX_R_SQUARED 0.941, PBLUC_HILL_SLOPE 2.85, PBLUC_R_SQUARED 0.882, read-out: LUCIFERASE INFECTION ASSAY - IC50) stood at 0.916 µM.

On to `COc1ccc(-n2nc(C)c3c2NC(=O)CC3c2ccc3c(c2)OCO3)cc1` (configuration not stated), for which the concentration for an effect of 90% (IC90) was greater than 8.74 µM. In addition, the half-inhibitory concentration (IC50) (HEPG2TOX_HILL_SLOPE 1.66, HEPG2TOX_R_SQUARED 0.931, PBLUC_HILL_SLOPE 1.06, PBLUC_R_SQUARED 0.555, read-out: LUCIFERASE INFECTION ASSAY - IC50) was found to be 1.33 µM.

Regarding `COc1ccccc1Oc1ccc(NC(C)C(=O)N2CCCC2)cc1` (configuration not stated), the 90% effect concentration (IC90) is greater than 10 µM. Also, under “PBLUC_HILL_SLOPE 21.7, PBLUC_R_SQUARED 0.137, read-out: LUCIFERASE INFECTION ASSAY - IC50”, the half-maximal inhibitory concentration (IC50) stood at 9.85 µM.
